In ChEMBL document CHEMBL1201862, “PubChem BioAssay data set” (2004):
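These data come from cells grown in 96-well plates and exposed to compound for 48 hours at five concentrations. GI50 is the concentration that inhibits growth by half.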 Calls of active or inactive are those of the source. Rule as the data show it: active = GI50 up to about 1.1 µM and inactive = higher.

Experiments:
Assay in all cases: growth of human tumour cells (NCI), 48 h
NCI-H460 = system: NCI-H460
SNB-19 = system: SNB-19
HL-60 = system: HL-60
RPMI-8226 = system: RPMI-8226
SNB-75 = system: SNB-75
HOP-92 = system: HOP-92
ACHN = system: ACHN
SF-268 = system: SF-268
CCRF-CEM = system: CCRF-CEM
MOLT-4 = system: MOLT-4
SF-295 = system: SF-295
786-0 = system: 786-0
HT-29 = system: HT-29
Malme-3M = system: Malme-3M
SW-620 = system: SW-620
SK-MEL-5 = system: SK-MEL-5

Compound	GI50 (NCI-H460)	GI50 (SNB-19)	GI50 (HL-60)	GI50 (RPMI-8226)	GI50 (SNB-75)	GI50 (HOP-92)	GI50 (ACHN)	GI50 (SF-268)	GI50 (CCRF-CEM)	GI50 (MOLT-4)	GI50 (SF-295)	GI50 (786-0)	GI50 (HT-29)	GI50 (Malme-3M)	GI50 (SW-620)	GI50 (SK-MEL-5)
CC/C=C1\N=C(c2ccc(Cl)cc2)OC1=O	> 100 µM (inactive)	> 100 µM (inactive)	> 100 µM (inactive)	> 100 µM (inactive)	> 100 µM (inactive)	> 100 µM (inactive)	> 100 µM (inactive)	> 100 µM (inactive)	> 100 µM (inactive)	> 100 µM (inactive)	> 100 µM (inactive)	> 100 µM (inactive)	> 100 µM (inactive)	> 100 µM (inactive)	> 100 µM (inactive)	–
COc1ccc2c3c([nH]c2c1[N+](=O)[O-])C(C)N(Cc1ccccc1)CC3 (stereo unspecified)	2.94 µM (inactive)	9.1 µM (inactive)	2.18 µM (inactive)	2.43 µM (inactive)	–	–	6.31 µM (inactive)	2.02 µM (inactive)	2.51 µM (inactive)	3.2 µM (inactive)	2.02 µM (inactive)	4.35 µM (inactive)	2.92 µM (inactive)	–	2.11 µM (inactive)	–
COc1c(C)cc2c(c1O)C1NC(C2)[C@H](O)N2C3COC(=O)[C@@]4(CS[C@@H](c5c(OC(C)=O)c(C)c6c(c53)OCO6)C12)NCCC1=C4NC2C=CC=CC12 (stereo partly specified)	< 0.01 µM (active)	< 0.01 µM (active)	< 0.01 µM (active)	< 0.01 µM (active)	< 0.01 µM (active)	–	< 0.01 µM (active)	< 0.01 µM (active)	< 0.01 µM (active)	< 0.01 µM (active)	< 0.01 µM (active)	< 0.01 µM (active)	< 0.01 µM (active)	< 0.01 µM (active)	< 0.01 µM (active)	< 0.01 µM (active)
Cc1ccc(C)c(NC(=O)C(=O)C(C2C(C)CC(=O)C2CC(=O)O)[N+](=O)[O-])c1 (stereo unspecified)	> 100 µM (inactive)	> 100 µM (inactive)	> 100 µM (inactive)	> 100 µM (inactive)	> 100 µM (inactive)	> 100 µM (inactive)	> 100 µM (inactive)	> 100 µM (inactive)	> 100 µM (inactive)	> 100 µM (inactive)	> 100 µM (inactive)	> 100 µM (inactive)	> 100 µM (inactive)	> 100 µM (inactive)	> 100 µM (inactive)	> 100 µM (inactive)
CN(C)CCNC(=O)C1COc2cc(-c3cc(=O)c4ccccc4o3)ccc2O1 (stereo unspecified)	38.2 µM (inactive)	23.1 µM (inactive)	23.9 µM (inactive)	27.9 µM (inactive)	17.8 µM (inactive)	> 100 µM (inactive)	16.9 µM (inactive)	23.7 µM (inactive)	30.4 µM (inactive)	15.7 µM (inactive)	28.4 µM (inactive)	18.1 µM (inactive)	16.9 µM (inactive)	21.7 µM (inactive)	18.2 µM (inactive)	15.2 µM (inactive)
C[N+](C)(C)Cc1c(CC#N)[nH]c2ccccc12	> 100 µM (inactive)	> 100 µM (inactive)	36.9 µM (inactive)	31.6 µM (inactive)	96.2 µM (inactive)	–	> 100 µM (inactive)	> 100 µM (inactive)	35.4 µM (inactive)	24.5 µM (inactive)	> 100 µM (inactive)	24.7 µM (inactive)	> 100 µM (inactive)	> 100 µM (inactive)	> 100 µM (inactive)	> 100 µM (inactive)
CC1CC2CC(=O)CC3(C1)C2CCCN3CCCO (stereo unspecified)	> 100 µM (inactive)	> 100 µM (inactive)	> 100 µM (inactive)	> 100 µM (inactive)	> 100 µM (inactive)	> 100 µM (inactive)	> 100 µM (inactive)	> 100 µM (inactive)	> 100 µM (inactive)	> 100 µM (inactive)	> 100 µM (inactive)	> 100 µM (inactive)	> 100 µM (inactive)	> 100 µM (inactive)	> 100 µM (inactive)	> 100 µM (inactive)
COC1OC(CO)C(O)C(O)C1Br (stereo unspecified)	> 100 µM (inactive)	> 100 µM (inactive)	> 100 µM (inactive)	> 100 µM (inactive)	–	> 100 µM (inactive)	> 100 µM (inactive)	> 100 µM (inactive)	> 100 µM (inactive)	> 100 µM (inactive)	> 100 µM (inactive)	> 100 µM (inactive)	> 100 µM (inactive)	> 100 µM (inactive)	> 100 µM (inactive)	> 100 µM (inactive)
NC1=C(Br)C(=O)c2ncccc2C1=O	0.393 µM (active)	1.25 µM (inactive)	0.505 µM (active)	0.942 µM (active)	0.183 µM (active)	1.45 µM (inactive)	0.406 µM (active)	0.42 µM (active)	1.4 µM (inactive)	1.63 µM (inactive)	0.367 µM (active)	1.51 µM (inactive)	1.69 µM (inactive)	0.466 µM (active)	0.466 µM (active)	0.284 µM (active)
